molecular target: T1, ECHS1 (short-chain enoyl-CoA hydratase) (Homo sapiens, UniProt P30084); experiment: SPR; format: binding
T1 sequence (P30084 28-290): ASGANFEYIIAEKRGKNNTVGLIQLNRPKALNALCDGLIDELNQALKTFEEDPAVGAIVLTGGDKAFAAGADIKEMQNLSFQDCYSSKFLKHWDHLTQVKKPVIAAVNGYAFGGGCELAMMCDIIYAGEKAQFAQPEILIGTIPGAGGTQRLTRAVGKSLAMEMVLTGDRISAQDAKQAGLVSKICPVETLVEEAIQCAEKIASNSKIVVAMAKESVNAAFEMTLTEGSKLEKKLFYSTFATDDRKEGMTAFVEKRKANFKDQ

Kd	Compound
863 nM	C/C=C/C(=O)SCCNC(=O)CCNC(=O)[C@H](O)C(C)(C)COP(=O)(O)OP(=O)(O)OC[C@H]1O[C@@H](n2cnc3c(N)ncnc32)[C@H](O)[C@@H]1OP(=O)(O)O [crotonyl-CoA]
2690 nM	CC(=O)CC(=O)SCCNC(=O)CCNC(=O)[C@H](O)C(C)(C)COP(=O)(O)OP(=O)(O)OC[C@H]1O[C@@H](n2cnc3c(N)ncnc32)[C@H](O)[C@@H]1OP(=O)(O)O [acetoacetyl-CoA]
2570 nM	CCCCCC(=O)SCCNC(=O)CCNC(=O)[C@H](O)C(C)(C)COP(=O)(O)OP(=O)(O)OC[C@H]1O[C@@H](n2cnc3c(N)ncnc32)[C@H](O)[C@@H]1OP(=O)(O)O [hexanoyl-CoA]
2640 nM	CCCCCCCC(=O)SCCNC(=O)CCNC(=O)[C@H](O)C(C)(C)COP(=O)(O)OP(=O)(O)OC[C@H]1O[C@@H](n2cnc3c(N)ncnc32)[C@H](O)[C@@H]1OP(=O)(O)O [octanoyl-CoA]
